pIC50: −log10 of the molar value. Activity calls are given as the source filed them. The calls are words filed in the database; no cut-off is given here.
How the values were obtained:
U-937 [1] = assay: Cytotoxicity against human U937 cells after 48 hrs by trypan blue assay; type: functional; details: U-937, 48 h
U-937 [2] = assay: Induction of cell differentiation in human U937 cells assessed as increase of CD11b and CD14 expression at 500 uM after 72 hrs by FACS flow cytometer analysis; type: functional, cell-based
U-937 [3] = assay: Induction of apoptosis in human U937 cells assessed as activation of caspase-3 at 500 uM after 24 hrs by colorimetric assay; type: functional, cell-based
U-937 [4] = assay: Antiproliferative activity against human U937 cells assessed as incorporation of [3H]-methyl-thymidine after 12 hrs by scintillation counting; type: functional, cell-based
[5] = Pro-oxidant activity in 0.1 M potassium phosphate buffer at pH 7.4 assessed as increase of oxidation potential by cyclic voltammetry analysis; type: physicochemical
U-937 [6] = assay: Induction of cell differentiation in human U937 cells assessed as increase of CD88 expression at 500 uM after 72 hrs by FACS flow cytometer analysis; type: functional, cell-based
Jurkat = assay: Induction of apoptosis in human Jurkat cells assessed as activation of caspase-3-mediated PARP cleavage at 500 uM after 24 hrs by colorimetric assay; type: functional, cell-based
PBMC = assay: Cytotoxicity against human PBMC at 500 uM after 48 hrs by trypan blue assay; type: cell-based
U-937 [7] = assay: Inhibition of clonogenic activity in human U937 cells assessed as reduction of colony formation in soft agar at 100 to 250 uM after 24 hrs using crystal violet staining; type: functional, cell-based
U-937 [8] = assay: Induction of cell differentiation in human U937 cells assessed as increase of rhC5a-induced response at 500 uM after 72 hrs by FACS flow cytometer analysis; type: functional, cell-based
U-937 [9] = assay: Pro-oxidant activity in human U937 cells assessed as DCF-DA oxidation at 10 to 250 uM after 48 hrs by fluorescence assay; type: functional, cell-based
U-937 [10] = assay: Induction of apoptosis in human U937 cells assessed as phosphatidylserine expression in plasma membrane at 500 uM after 24 hrs by Annexin V-FITC double staining; type: functional, cell-based

SMILES	pIC50 (U-937 [4])	Activity [5]	CC50 (U-937 [1])	Activity (U-937 [2])	Activity (U-937 [3])	Activity (U-937 [6])	Activity (Jurkat)	Activity (PBMC)	colony formation inhibition (active/not active) (U-937 [7])	Activity (U-937 [8])	Activity (U-937 [9])	Activity (U-937 [10])
Cc1cc(=O)oc2ccc(O)cc12			> 2 mM	Active	inactive							
CC(=O)c1c(O)ccc2c(C)cc(=O)oc12	3.34		> 1 mM	Active	inactive							
O=c1cccco1	< 2.70	Not Active	> 2 mM	Active								
COc1ccc2c(C)cc(=O)oc2c1OC	3.13	Not Active	> 2 mM	inactive	inactive	inactive	inactive	Non-toxic	inactive	inactive	inactive	Active
COc1ccc(/C=C/C(=O)O)cc1OC	< 2.70	Active	> 2 mM									
COc1ccc(CCC(=O)O)cc1OC	< 2.70	Active	> 2 mM	inactive		inactive	inactive	Non-toxic		inactive	inactive	
Cc1cc(O)nc2cc(O)ccc12	3.59		> 1 mM	Active	inactive							

Continued, in another order:

pIC50 (U-937 [4])	Activity [5]	SMILES	CC50 (U-937 [1])	Activity (U-937 [2])	Activity (U-937 [3])	Activity (U-937 [6])	Activity (Jurkat)	Activity (PBMC)	colony formation inhibition (active/not active) (U-937 [7])	Activity (U-937 [8])	Activity (U-937 [9])	Activity (U-937 [10])
3.11		Cc1cc(=O)oc2cc(O)c(Cl)cc12	0.734 mM	inactive	inactive							
< 2.70	Not Active	COc1cc(C)oc(=O)c1	> 2 mM	Active								
< 2.70	Not Active	Cc1cc(C)oc(=O)c1	> 2 mM	Active								
< 2.70	Not Active	Cc1cc(O)cc(=O)o1	> 2 mM	Active								
